Experimental data reported in patent US7183108B1, “Selection and uses of lactic acid bacteria strains modulating non-specific immunity” (Compagnie Gervais Danone, priority 1998, dated 2007).

Legend:
Format in all cases: cell-based, human
Caco-2 cells [1] = test: Production of nitric oxide (nitrite, GRIESS method) by Caco-2 colon epithelial cell line; conditions: Caco-2, L-NAME 1 mM, in the presence or absence of total extract of L. casei (3% v/v) (FIG. 2)
Experimental: (§1) Each of the 2 lines was seeded at 2×10^5 cells/well in 96-well plates, in DMEM medium supplemented with 5% of SVF, with 100 U/ml of penicillin, with 100 μg/ml of streptomycin and with 2 mM of L-glutamine.
(§2) The cells are pre-incubated for 24 hours at 37° C., 5% CO2, in the presence of CYTOMIX (IL-1β: 10 ng/ml, TNF-α: 25 ng/ml and γ-IFN: 10^3 U/ml mixture). The cells are then incubated for a further 24 hours in the presence or absence of increasing amounts of total extracts of L. casei (in % vol/vol).
(§3) After incubation, the culture supernatants are recovered and frozen, before determining the nitrite concentration. For certain experiments, L-NAME (1 mM), which is an analogue of L-arginine and constitutes a competitive inhibitor specific for NO-synthases, is added at the same time as the extracts of L. casei.
(§4) The amount of NO produced is evaluated by assaying, in the culture supernatants, the stable derivatives of this radical after reaction thereof in aqueous medium: the nitrites and nitrates. The nitrates are, initially, reduced to nitrites with bacteria expressing nitrate reductase, and the nitrites are then assayed using the GRIESS method. […] The absorbances are then determined at 540 nm using a MULTISCAN MCC340 reader (LABSYSTEM).

HT-29 cells [2] = test: Production of nitric oxide (nitrite, GRIESS method) by HT-29 colon epithelial cell line; conditions: HT-29, L-NAME 1 mM, in the presence or absence of total extract of L. casei (3% v/v) (FIG. 2)
Experimental: as §1, §2, §3, §4

Caco-2 cells [3] = test: Production of TNF-α and IL-1β by Caco-2 cells (ELISA of culture supernatants); conditions: Caco-2 preactivated with CYTOMIX, with total extract of L. casei; L-NAME 1 mM or PDTC 10 pM (FIG. 3)
Experimental: (§5) Each of the 2 lines was seeded at 2×10^6 cells/well in 24-well plates, in DMEM medium supplemented with 5% of SVF, with 100 U/ml of penicillin, with 100 μg/ml of streptomycin and with 2 mM of L-glutamine. The cells are then incubated for 24 hours in the presence of CYTOMIX, and then for a further 24 hours in the presence of the total extracts of L. casei. For certain experiments, L-NAME (1 mM) or an inhibitor of the NFκB transduction pathway (PDTC: 10 pM) are added at the same time as the bacterial extracts. The culture supernatants are then recovered and the cytokine concentration thereof is determined by ELISA.

HT-29 cells [4] = test: Production of TNF-α and IL-1β by HT-29 cells (ELISA of culture supernatants); conditions: HT-29 preactivated with CYTOMIX, with total extract of L. casei; L-NAME 1 mM or PDTC 10 pM (FIG. 3)
Experimental: as §5

COC(=O)[C@@H](N)CCCNC(=N)N[N+](=O)[O-] [L-NAME]
inhibited: effect on CYTOMIX-induced production of NO (Caco-2 cells [1]) | effect on CYTOMIX-induced production of NO (HT-29 cells [2]) | effect of inhibitor on production of TNF-α (Caco-2 cells [3]) | effect of inhibitor on production of TNF-α (HT-29 cells [4])

S=C(S)N1CCCC1 [PDTC]
inhibited: effect of inhibitor on production of TNF-α (Caco-2 cells [3]) | effect of inhibitor on production of TNF-α (HT-29 cells [4])
